Test results reported in US10633377B2, “Imidazole and thiazole compositions for modifying biological signaling” (Ohio University, priority 2014, dated 2020).
Where two headings read alike, the source gives them in different places.

How the values were obtained:
IL-6 transcripts = assay: Inhibition of LPS induction of IL-6 transcripts in macrophages (rt-PCR); type: cell-based, Murine; conditions: for IC50: LPS-treated murine macrophages, mRNA transcripts by rt-PCR
Description: (§1) Murine macrophages were treated with LPS in the presence of various exemplary compounds described above. Subsequently, the cells were harvested and the transcripts for IL-6, iNOS, and INF-β quantified via rt-PCR. IC50 is the concentration of the compounds required to inhibit 50% of the mRNA transcripts induced by LPS. TC50 is the concentration of the compounds required to diminish the MTS signal by 50% (MTS signal correlates with cell metabolism/viability). Therapeutic Index (TI) is the ratio of TC50 to IC50.
(§2) In TABLE 4, data are provided that show effects of exemplary compounds described above on the inhibition of LPS induction of IL-6, iNOS, and INF-β transcripts in macrophages. The IL-6, iNOS, and INF-β transcripts are key mediators in a plethora of signaling networks that are involved in normal physiology and pathological processes. The mechanism by which LPS induces the IL-6, iNOS, and INF-β transcripts is via a network of signaling events. […] Data in TABLE 4 that was not calculatable is noted “NC.”

INF-β transcripts = assay: Inhibition of LPS induction of INF-β transcripts in macrophages (rt-PCR); type: cell-based, Murine; conditions: for IC50: LPS-treated murine macrophages, mRNA transcripts by rt-PCR
Description: as §1, §2

iNOS transcripts = assay: Inhibition of LPS induction of iNOS transcripts in macrophages (rt-PCR); type: cell-based; conditions: LPS-treated murine macrophages, mRNA transcripts by rt-PCR
Description: as §1, §2

[1] = MTS signal (cell metabolism/viability); type: cell-based, Murine; conditions: mouse, murine macrophages; concentration required to diminish the MTS signal by 50%; read-out: Average TC50
Description: as §1

Murine macrophages = assay: MTS signal (cell metabolism/viability); type: cell-based
Description: as §1

SMILES	IC50 (IL-6 transcripts; Mus musculus, Macrophage) [µM]	IC50 (INF-β transcripts; Mus musculus, Macrophage) [µM]	IC50 (iNOS transcripts; Mus musculus, Macrophage) [µM]	CC50 [1] [µM]	other results
COc1cccc(-c2c[nH]c(=S)n2C)c1 [COB-117]	30	22	36	–	–
Cn1c(-c2cccc(Cl)c2)c[nH]c1=S [COB-119]	45	46	60	390	–
COc1ccc(-c2c[nH]c(=S)n2C)cc1OC [COB-123]	19	21	55	–	–
CCn1c(-c2cccc(Cl)c2)c[nH]c1=O [COB-125]	31	36	43	500	–
COc1ccc(-c2c[nH]c(=S)n2C)c(OC)c1 [COB-130]	29	47	26	–	–
COc1ccc(OC)c(-c2c[nH]c(=S)n2C)c1 [COB-132]	26	85	38	360	–
Cn1c(-c2ccc(OC(F)(F)F)cc2)c[nH]c1=S [COB-134]	66	135	87	–	–
COc1ccc(OC)c(C2(O)CSC(=S)N2Cc2ccccc2)c1 (stereo not drawn) [COB-143]	13	1	3	23	–
OC1(c2ccccc2)CSC(=S)N1Cc1cccnc1 (stereo not drawn) [COB-152]	4.25	0.156	0.156	18	–
OC1(c2ccccc2)CSC(=S)N1CCCc1ccccc1 (stereo not drawn) [COB-168]	17	1.5	1.5	12	–
S=c1scc(-c2ccccc2)n1CCc1ccccc1 [COB-177]	8	13	32	–	–
OC1(c2ccccc2)CSC(=S)N1Cc1nc2ccccc2[nH]1 (stereo not drawn) [COB-183]	19	8	9.5	> 50	–
OC1(c2ccccc2)CSC(=S)N1Cc1cccc(CN2C(=S)SCC2(O)c2ccccc2)c1 (stereo not drawn) [COB-186]	–	–	1.9	4	IL-6 inhibition printed in IC50 column (IL-6 transcripts; 0.03 μM-2 μM): <30%; INF-β inhibition printed in IC50 column (INF-β transcripts; 0.5 μM-2 μM): 40%
OC1(c2ccccc2)CSC(=S)N1Cc1ccncc1 (stereo not drawn) [COB-187]	–	0.125	0.375	15	–
OC1(c2ccccc2)CSC(=S)N1Cc1ccc2[nH]ccc2c1 (stereo not drawn) [COB-188]	–	0.25	0.25	13	–
Oc1cccc(C2(O)CSC(=S)N2Cc2ccccc2)c1 (stereo not drawn) [COB-196]	–	0.375	0.5	17	–
COc1ccc(OC)c(C2(O)CSC(=S)N2Cc2cccnc2)c1 (stereo not drawn) [COB-197]	–	2.5	2.5	–	–
Oc1cccc(C2(O)CSC(=S)N2Cc2cccnc2)c1 (stereo not drawn) [COB-198]	–	0.2	0.15	17	–
COc1ccc(C2(O)CSC(=S)N2Cc2cccnc2)c(OC)c1 (stereo not drawn) [COB-199]	–	> 5	2.2	23	–
Oc1ccc(C2(O)CSC(=S)N2Cc2cccnc2)c(O)c1 (stereo not drawn) [COB-200]	–	0.4	0.5	11	–
COc1ccc(C2(O)CSC(=S)N2Cc2cccnc2)cc1 (stereo not drawn) [COB-201]	–	1.25	0.45	10	–

SMILES	IC50 (IL-6 transcripts; Mus musculus, Macrophage) [µM]	IC50 (INF-β transcripts; Mus musculus, Macrophage) [µM]	IC50 (iNOS transcripts; Mus musculus, Macrophage) [µM]	CC50 [1] [µM]	other results
O=c1oc2ccccc2cc1C1(O)CSC(=S)N1Cc1cccnc1 (stereo not drawn) [COB-202]	–	4.4	2.2	43	–
COc1ccc(OC)c(-c2csc(=S)n2Cc2cccnc2)c1 [COB-203]	19.5	8	–	270	–
COc1ccc(-c2csc(=S)n2Cc2cccnc2)c(OC)c1 [COB-204]	5	14	7	130	–
COc1ccc(-c2csc(=S)n2Cc2cccnc2)cc1 [COB-206]	10.5	30	54	120	–
CCCN1C(=S)SCC1(O)c1ccc(Cl)c(Cl)c1 (stereo not drawn) [COB-210]	16	3	2	45	–
CCCCCCN1C(=S)SCC1(O)c1ccccc1 (stereo not drawn) [COB-212]	–	3.6	3.4	54	–
CCCn1c(-c2cccnc2)csc1=S [COB-214]	6	–	10.5	230	–
CCCn1c(-c2cccc([N+](=O)[O-])c2)csc1=S [COB-215]	8.8	~10	~10	~100	–
C=CCn1c(-c2ccccc2)csc1=S [COB-217]	–	–	–	–	MTS signal decrease (Murine macrophages): 30%; IC50 (IL-6 transcripts): 8.2 µM; IC50 (INF-β transcripts): ~10 µM; IC50 (iNOS transcripts): ~10 µM
CCCCCCn1c(-c2ccccc2)csc1=S [COB-218]	9.5	10.5	–	–	MTS signal decrease (Murine macrophages; 100 μM): 0%
CCCn1c(-c2ccc(Cl)c(Cl)c2)csc1=S [COB-219]	8.5	16.5	~20	–	MTS signal decrease (Murine macrophages; 100 μM): 30%
CCCn1c(-c2cc(OC)ccc2OC)csc1=S [COB-220]	5.5	12.2	3.75	60	–
Oc1ccc(Cl)cc1C1(O)CSC(=S)N1Cc1ccccc1 (stereo not drawn) [COB-221]	> 10	1.5	1.8	18	–
Oc1ccc(Cl)cc1C1(O)CSC(=S)N1Cc1cccnc1 (stereo not drawn) [COB-222]	8.6	0.45	0.45	15	–
Cc1ccc(C)c(C2(O)CSC(=S)N2Cc2cccnc2)c1 (stereo not drawn) [COB-223]	3.5	0.4	0.4	14	–
Cc1ccccc1C1(O)CSC(=S)N1Cc1cccnc1 (stereo not drawn) [COB-224]	3.5	0.45	0.4	13	–
COc1ccc(F)cc1C1(O)CSC(=S)N1Cc1cccnc1 (stereo not drawn) [COB-225]	32.5	1	1	65	–
OC1(c2cc(C(F)(F)F)ccc2Cl)CSC(=S)N1Cc1cccnc1 (stereo not drawn) [COB-226]	12.5	1.5	1.5	33	–
CCCN1C(=S)SCC1(O)c1cccnc1 (stereo not drawn) [COR-207]	12	2.1	2.7	–	–
CCCn1c(-c2ccc(C#N)cc2)csc1=S [COR-216]	8.1	~10	~10	> 100	–
